Reference: patent US20240408114A1, “METHODS FOR PREVENTING AND TREATING ACUTE KIDNEY INJURY” (The Johns Hopkins University, priority 2021, published 2024)

Columns and labels:
[1] = tested on: cisplatin-induced AKI in mice; assay: Cisplatin-induced (nephrotoxic) AKI model: kidney function and histology; type: in vivo, mouse
Procedure: Given the significant protective outcomes in ischemic AKI, we subsequently tested the effect of glutamine blockade on a nephrotoxic AKI model, which is another common etiology of clinical AKI. After pretreatment with JHU083 or vehicle, 25 mg/kg of cisplatin was injected intraperitoneally. T cells were isolated and studied after 72 h after cisplatin treatment (FIG. 16A).
Cisplatin (cis-diammineplatinum II dichloride; Sigma-Aldrich, St. Louis, MO) was freshly dissolved into 0.9% saline (1 mg/mL) on the day of injection. The dissolved solution was incubated in water bath at 40° C. for 10 min to achieve complete dissolution. A single 25 mg/kg dose of cisplatin was injected intraperitoneally.
Blood samples were obtained at 0, 24, 48, and 72 h after IRI or cisplatin injection through tail vein collection. Plasma creatinine concentration was measured by Cobas Mira Plus automated analyzer system (Roche, Indianapolis, IN) with creatinine reagent (Pointe Scientific Inc, Canton, MI).
At 24 h after IRI and 72 h after cisplatin injection, mice were anesthetized with ketamine (130 mg/kg; VetOne, Boise, ID) and xylazine (7 mg/kg; Akorn) intraperitoneal injection. After exsanguination, kidneys were collected and fixed with 10% buffered formalin followed by paraffin embedding. Tissue sections were stained with hematoxylin and eosin. A renal pathologist scored necrotic tubules in a blinded fashion.
Glutamine antagonist, JHU083 was synthesized as previously described, Rais et al., 2016, and dissolved in 50 mM […] 4-(2-hydroxyethyl)-1-piperazineethanesulfonic acid (HEPES) buffered 0.9% saline. Aliquot stocks were stored at −80° C. and thawed right before injection. Before the IRI surgery or cisplatin injection, mice were administered 1.83 mg/kg JHU083 (equivalent to 1 mg/kg DON) or vehicle (50 mM HEPES buffered 0.9% saline) every other day via intraperitoneal injection. Following 4 consecutive dosages, mice underwent IRI surgery or cisplatin injection. The last additional dose was given at 24 h after IRI or cisplatin injection. […]

kidney T cells = assay: T cell phenotypes in normal steady-state kidneys; type: in vivo, mouse; settings: normal mice, same dosage schedule; vs vehicle
Procedure: To test whether this immunologic effect was derived from the glutamine blockade or attenuated kidney injury, we studied normal mice treated with JHU083 or vehicle with the same dosage schedule. […] Therefore, changes seen in these markers in post-ischemic kidneys are likely through JHU083-mediated glutamine blockade.
KMNCs were isolated according to our previously described Percoll density gradient protocol. Ascon et al., 2006. Briefly, decapsulated kidneys were immersed and incubated in collagenase D (2 mg/mL; Sigma-Aldrich) solution for 30 min at 37° C. Samples were strained through 70 µm cell strainer (BD Bioscience, Franklin Lakes, NJ), washed, and resuspended in 40% Percoll (GE Healthcare, Chicago, IL) followed by gentle overlaying onto 80% Percoll. After centrifugation at 1,500 g for 30 min in brake off mode at room temperature, KMNCs were collected from interface between 40% and 80% Percoll. […] Cells were counted on hemocytometer using trypan blue exclusion under a microscope.
Cells were washed once with phosphate buffered saline (PBS) and stained with viability dye Zombie NIR Fixable Viability (BioLegend, San Diego, CA) for 15 min at room temperature. […] Samples were analyzed by 4-laser Aurora spectral flow cytometer (Cytek, Fremont, CA). […]

CCOC(=O)[C@H](CCC(=O)C=[N+]=[N-])NC(=O)[C@@H](N)CC(C)C [JHU083]
plasma creatinine at 72 h ([1]; 72 h after cisplatin 25 mg/kg i.p., JHU083 pretreatment, vehicle 2.28±0.34, P=0.016): 1.17 ± 0.24 mg/dL
medullary necrotic tubules ([1]; 72 h after cisplatin, vehicle 57.1±3.7, P<0.001): 19.9±4.5%
cortical necrotic tubules ([1]; 72 h after cisplatin, vehicle 58.1±4.9, P=0.243): 20.9±7.0%
phenotype of CD4+ and CD8+ T cells in steady-state kidneys (kidney T cells): skewed toward naïve phenotypes with lower CD69, CD44, and Ki67 and higher CD62L
